Laboratory results reported in PubChem BioAssay AID1417 (Emory University Molecular Libraries Screening Center, 2008).
pIC50: −log10 of the molar value.

biological target: Induced myeloid leukemia cell differentiation protein Mcl-1 (Homo sapiens) (UniProt Q07820); experiment: Mcl-1 Noxa peptide disruption concentration-response – biochemical, TR-FRET, dose response (AID 1417); conditions: Mcl-1/Noxa peptide interaction, cell-free TR-FRET (terbium/rhodamine), 2 h; measured here: absolute IC50
Sequence (Q07820 whole entry, looked up): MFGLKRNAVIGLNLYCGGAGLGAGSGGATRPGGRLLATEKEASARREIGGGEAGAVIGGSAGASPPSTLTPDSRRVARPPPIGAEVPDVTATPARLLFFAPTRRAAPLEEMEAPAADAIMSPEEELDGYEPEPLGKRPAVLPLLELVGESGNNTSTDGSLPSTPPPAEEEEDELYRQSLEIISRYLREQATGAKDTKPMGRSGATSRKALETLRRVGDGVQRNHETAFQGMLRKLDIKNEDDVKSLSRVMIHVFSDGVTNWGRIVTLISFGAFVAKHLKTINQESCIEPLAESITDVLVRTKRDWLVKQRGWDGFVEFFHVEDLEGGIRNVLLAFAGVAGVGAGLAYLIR

SMILES | pIC50
Cc1[nH]c2ccccc2c1/C=C/c1nc2ccccc2c(=O)[nH]1 | 5.20
S=C(NNc1ccnc2cc(Cl)ccc12)Nc1ccc(Cl)cc1Cl | 5.20
CCN(CC)c1ccc(NC(=O)Nc2ccc(C(C)=O)cc2)cc1 | < 4.27
O=C1NN(c2ccccc2)C(=O)/C1=C\c1ccc(-c2cc([N+](=O)[O-])ccc2O)o1 | 5.01
CN(C)S(=O)(=O)c1cccc(-c2nn(-c3ccccc3)cc2/C=C2\SC(=S)N(CC(=O)O)C2=O)c1 | 5.37
CC(C)c1ccc(S(=O)(=O)/N=C2/C=CC(=O)c3ccccc32)cc1 | > 6.40
O=C(O)c1ccc(N/N=C/c2ccc(-c3ccc(Cl)cc3Cl)o2)cc1 | 5.36
O=[N+]([O-])c1ccc(-c2c[nH]c(=S)[nH]2)cc1 | 6.10
CN(C)c1ncc(C2=C(Cl)C(=O)C(N3CCCC3)=C(Cl)C2=O)s1 | > 6.40
COc1cnn(-c2ccccc2)c(=O)c1SCc1ccc(Cl)cc1Cl | < 4.27
Cc1[nH]n(-c2ncc(-c3ccc(Cl)cc3)s2)c(=O)c1C(c1ccc(Cl)cc1)C(C#N)C#N (stereo not drawn) | 5.78
O=C(CN1CCN(c2ccc(O)cc2)CC1)Nc1cc([N+](=O)[O-])ccc1Cl | 5.19
COc1cc(/C=C2\SC(=S)NC2=O)ccc1OS(=O)(=O)c1ccccc1 | 5.71
CN1CCN(CCCN2c3ccccc3Sc3ccc(Cl)cc32)CC1 | 5.39
CC(C)Nc1nnc(SCC(=O)Nc2ccc3c(c2)C(=O)c2ccccc2C3=O)s1 | 5.70
N/C(=N\N=C/c1ccc(-c2ccc(O)c(C(=O)O)c2)o1)N[N+](=O)[O-] | 5.58
Cc1nc(C)c(C(=O)Nc2nc3c(C)cccc3s2)o1 | 5.58
Cc1cc(C(=O)OCC(=O)Nc2sc3c(c2C#N)CCC(C)C3)c2ccccc2n1 (stereo not drawn) | 5.37
c1ccc(CN=C2NN=C(c3cc4ccccc4o3)CS2)cc1 | < 4.27
COc1ccc(C(=O)Nc2nc3c(s2)Cc2cc(OC)ccc2-3)cc1 | 5.39
O=C(N=Nc1c(O)n(Cc2ccccc2)c2ccccc12)c1cc2ccccc2cc1O | 5.32
COc1cc(/C=N/NC(=O)C(Cc2c[nH]c3ccccc23)NC(=O)OCc2ccccc2)cc([N+](=O)[O-])c1O (stereo not drawn) | 5.32
CN1CCc2cccc3c2[C@@H]1Cc1ccc(O)c(O)c1-3 | 6.08
CN(C)c1ccc(NC(=O)Cn2ncn3c(cc4ccccc43)c2=O)cc1 | 5.47
Cc1ccc(-n2cccc2/C=C2/C(=N)N3C(=NC2=O)SN=C3S(C)(=O)=O)cc1 | 5.27
O=C(O)CCN1C(=O)/C(=C/c2cn(-c3ccccc3)nc2-c2cccs2)SC1=S | < 4.27
CCc1n[nH]c(=S)n1/N=C/c1cc(OC)cc([N+](=O)[O-])c1O | > 6.40

SMILES | pIC50
COCCN=c1scc(-c2ccco2)n1/N=C/c1ccc(O)c(O)c1O | > 6.40
Oc1c(Cl)cc(Cl)cc1Sc1cc(Cl)cc(Cl)c1O | 5.78
Oc1cc2c(cc1O)C1c3ccc(O)c(O)c3OCC1(O)C2 (stereo not drawn) | > 6.40
CC1=C(C#N)C(=O)NC(=O)/C1=C/c1ccc(-c2ccc(S(N)(=O)=O)cc2)o1 | > 6.40
COc1cc(/C=C2\SC(=O)N(Cc3ccc(Cl)cc3)C2=O)cc([N+](=O)[O-])c1O | 5.15
O=C(O)CCc1nc(-c2cccs2)no1 | < 4.27
Cc1[nH]n(-c2ncc(-c3ccccc3)s2)c(=O)c1C(c1ccc(Br)cc1)C(C#N)C#N (stereo not drawn) | 5.18
CC(=O)N(C1=C(Cl)C(=O)c2ccccc2C1=O)C1CCCCC1 | > 6.40
CC(C)(O)C#Cc1ccc(CN2CCN(C3CCCCC3)C(CCO)C2)cc1 (stereo not drawn) | < 4.27
C1=CC2c3ccccc3NC(c3ccncc3)C2C1 (stereo not drawn) | 5.74
CC(OC(=O)c1cccc(N2C(=O)c3ccccc3C2=O)c1)C(=O)Nc1ccc(N(C)C)cc1 (stereo not drawn) | < 4.27
Oc1ccccc1NCC(O)Cn1ccc2ccccc21 (stereo not drawn) | 5.28
CN1CCC(N(C)c2nc(-c3ccc([N+](=O)[O-])cc3)nc3ccccc23)CC1 | > 6.40
Cc1ccc(NC(=O)CN2C(=O)N/C(=C/c3cccn3-c3ccc(C(=O)O)cc3)C2=O)cc1 | < 4.27
O=C(CNC(=O)C(c1ccccc1)c1ccccc1)N/N=C/c1cccnc1 | < 4.27
O=C1Nc2ccc(Br)cc2/C1=C/C(=O)c1ccc2c(c1)OCO2 | 5.86
O=C(O)c1ccccc1N/N=C/c1cc(Br)cc(Br)c1O | 5.12
COc1ccc(-n2nc3cc(C)c(N)c(Br)c3n2)cc1 | 5.54
O=C(NN1C(=O)/C(=C/C=C/c2ccco2)SC1=S)c1ccccc1O | 6.00
Cc1ccc(N2C(=O)NC(=O)/C(=C\c3cnc(-c4ccccc4)nc3)C2=O)cc1 | 4.69
Cc1c(Cl)cnc(NC(=O)COC(=O)c2ccc([N+](=O)[O-])s2)c1Cl | 5.15
COc1ccc(CC(=O)n2[nH]c(=O)ccc2=O)cc1OC | > 6.40
CCN(c1ccc(NC(=O)COC(=O)CCc2nc3ccccc3n2-c2ccccc2)cc1)C(C)C | > 6.40
COc1ccc(N2Cc3cccc(C(=O)N4CCN(C(=O)c5ccco5)CC4)c3C2=O)cc1 | 5.75
CC1=NNC(=O)C1CC(=O)N/N=C(\C)c1ccco1 (stereo not drawn) | < 4.27
Cc1cccc(NC(=O)CSc2nnc(-c3ccco3)c(-c3ccco3)n2)c1C | 5.19
